Laboratory results as given in ChEMBL document CHEMBL5352436, “Triterpenoid pyrazines and pyridines - Synthesis, cytotoxicity, mechanism of action, preparation of prodrugs” (Eur J Med Chem, 2022).
pIC50: −log10 of the molar value. Activity calls are given as the source filed them. No cut-off for these calls is given here.

Columns and labels:
CCRF-CEM [1] = test: Induction of apoptosis in human CCRF-CEM cells assessed as viable cells at 1 time IC50 incubated for 24 hrs by Annexin V and propidium iodide staining based flow cytometry analysis […]; format: functional
[2] = Cytotoxicity against human HCT116-p53-null cells assessed as reduction in cell viability incubated for 72 hrs by MTS assay; format: functional, cell-based
HCT-116 = test: Cytotoxicity against human HCT-116 cells assessed as reduction in cell viability incubated for 72 hrs by MTS assay; format: functional, cell-based; settings: HCT-116, 72 h
CCRF-CEM [3] = test: Cytotoxicity against human CCRF-CEM cells assessed as reduction in cell viability incubated for 72 hrs by MTS assay; format: functional, cell-based
[4] = Cytotoxicity against human K562-Tax cells assessed as reduction in cell viability incubated for 72 hrs by MTS assay; format: functional, cell-based
CCRF-CEM [5] = test: Induction of apoptosis in human CCRF-CEM cells assessed as early apoptotic cells at 1 time IC50 incubated for 24 hrs by Annexin V and propidium iodide staining based flow cytometry analysis (reference value: […]); format: functional
U2OS = test: Cytotoxicity against human U2OS cells assessed as reduction in cell viability incubated for 72 hrs by MTS assay; format: functional, cell-based
CCRF-CEM [6] = test: Induction of apoptosis in human CCRF-CEM cells assessed as necrotic cells at 1 time IC50 incubated for 24 hrs by Annexin V and propidium iodide staining based flow cytometry analysis (reference value: 0.0%); format: functional
CCRF-CEM [7] = test: Induction of apoptosis in human CCRF-CEM cells assessed as early apoptotic cells at 5 times IC50 incubated for 24 hrs by Annexin V and propidium iodide staining based flow cytometry analysis […]; format: functional
CEM-DNR = test: Cytotoxicity against human CEM-DNR cells assessed as reduction in cell viability incubated for 72 hrs by MTS assay; format: functional, cell-based
CCRF-CEM [8] = test: Induction of apoptosis in human CCRF-CEM cells assessed as increase in Noxa expression at 1 to 5 times IC50 incubated for 24 hrs by Western blot analysis; format: functional, cell-based
A549 = test: Cytotoxicity against human A549 cells assessed as reduction in cell viability incubated for 72 hrs by MTS assay; format: functional, cell-based; settings: A549, 72 h
[9] = Cytotoxicity against human MRC5 cells assessed as reduction in cell viability incubated for 72 hrs by MTS assay; format: toxicity, cell-based
CCRF-CEM [10] = test: Induction of apoptosis in human CCRF-CEM cells assessed as late apoptotic cells at 5 times IC50 incubated for 24 hrs by Annexin V and propidium iodide staining based flow cytometry analysis […]; format: functional
CCRF-CEM [11] = test: Induction of apoptosis in human CCRF-CEM cells assessed as accumulation of Bax protein expression at 1 to 5 times IC50 incubated for 24 hrs by Western blot analysis; format: functional, cell-based
CCRF-CEM [12] = test: Induction of apoptosis in human CCRF-CEM cells assessed as late apoptotic cells at 1 time IC50 incubated for 24 hrs by Annexin V and propidium iodide staining based flow cytometry analysis (reference value: […]); format: functional
[13] = Cytotoxicity against human BJ cells assessed as reduction in cell viability incubated for 72 hrs by MTS assay; format: toxicity, cell-based
K562 = test: Cytotoxicity against human K562 cells assessed as reduction in cell viability incubated for 72 hrs by MTS assay; format: functional, cell-based; settings: K562, 72 h
CCRF-CEM [14] = test: Induction of apoptosis in human CCRF-CEM cells assessed as accumulation of Bid protein expression at 1 to 5 times IC50 incubated for 24 hrs by Western blot analysis; format: functional, cell-based
CCRF-CEM [15] = test: Induction of apoptosis in human CCRF-CEM cells assessed as necrotic cells at 5 times IC50 incubated for 24 hrs by Annexin V and propidium iodide staining based flow cytometry analysis […]; format: functional
CCRF-CEM [16] = test: Induction of apoptosis in human CCRF-CEM cells assessed as viable cells at 5 times IC50 incubated for 24 hrs by Annexin V and propidium iodide staining based flow cytometry analysis […]; format: functional
CCRF-CEM [17] = test: Induction of apoptosis in human CCRF-CEM cells assessed as PARP cleavage at 1 to 5 times IC50 incubated for 24 hrs by Western blot analysis; format: functional, cell-based
CCRF-CEM [18] = test: Induction of apoptosis in human CCRF-CEM cells assessed as decrease in c-Myc expression at 1 to 5 times IC50 incubated for 24 hrs by Western blot analysis; format: functional, cell-based
[19] = Stability in human plasma assessed as compound remaining at 2 uM measured at 60 mins by RF-MS analysis; format: ADME, cell-free; settings: read-out: Stability
[20] = Chemical stability in PBS buffer at pH 7.4 assessed as compound remaining measured at 30 mins by RF-MS analysis; format: physicochemical; settings: read-out: Stability
[21] = Apparent permeability of the compound in MDCK-MDR1 cells at 10 uM incubated for 1 hr by RF-MS analysis; format: ADME, cell-based, Canis lupus familiaris; settings: dog
[22] = Chemical stability in PBS buffer at pH 7.4 assessed as compound remaining measured at 15 mins by RF-MS analysis; format: physicochemical; settings: read-out: Stability
[23] = Apparent permeability of the compound in MDCK-MDR1 cells assessed as drug recovery at 10 uM incubated for 1 hr by RF-MS analysis; format: ADME, cell-based, Canis lupus familiaris; settings: dog, read-out: Drug recovery
[24] = Chemical stability in PBS buffer at pH 7.4 assessed as compound remaining measured at 60 mins by RF-MS analysis; format: physicochemical; settings: read-out: Stability
[25] = Plasma protein binding in human at 10 uM by rapid equilibrium dialysis based RF-MS analysis; format: ADME, cell-free; settings: read-out: PB (converted)
[26] = Stability in human liver microsomes assessed as compound remaining at 2 uM measured at 60 mins in presence of NADPH by RF-MS analysis; format: ADME, Microsome; settings: read-out: Stability
[27] = Efflux ratio of apparent permeability across basolateral to apical side over apical to basolateral side in MDCK-MDR1 cells; format: ADME, cell-based, Canis lupus familiaris; settings: dog
[28] = Stability in human liver microsomes assessed as compound remaining at 2 uM measured at 15 mins in presence of NADPH by RF-MS analysis; format: ADME, Microsome; settings: read-out: Stability
[29] = Stability in human liver microsomes assessed as compound remaining at 2 uM measured at 30 mins in presence of NADPH by RF-MS analysis; format: ADME, Microsome; settings: read-out: Stability
[30] = Stability in human plasma assessed as compound remaining at 2 uM measured at 120 mins by RF-MS analysis; format: ADME, cell-free; settings: read-out: Stability
[31] = Stability in human plasma assessed as compound remaining at 2 uM measured at 15 mins by RF-MS analysis; format: ADME, cell-free; settings: read-out: Stability
[32] = Chemical stability in PBS buffer at pH 7.4 assessed as compound remaining measured at 120 mins by RF-MS analysis; format: physicochemical; settings: read-out: Stability
[33] = Stability in human plasma assessed as compound remaining at 2 uM measured at 30 mins by RF-MS analysis; format: ADME, cell-free; settings: read-out: Stability

Row | SMILES | Activity (CCRF-CEM [1]) | pIC50 [2] | pIC50 (HCT-116) | pIC50 (CCRF-CEM [3]) | pIC50 [4] | Activity (CCRF-CEM [5]) | pIC50 (U2OS) | Activity (CCRF-CEM [6]) | Activity (CCRF-CEM [7]) | pIC50 (CEM-DNR) | Activity (CCRF-CEM [8]) | pIC50 (A549) | IC50 at 72 h [9] | Activity (CCRF-CEM [10]) | Activity (CCRF-CEM [11]) | Activity (CCRF-CEM [12]) | IC50 at 72 h [13] | pIC50 (K562) | Activity (CCRF-CEM [14]) | Activity (CCRF-CEM [15]) | further results
1 | C=C(C)[C@@H]1CC[C@]2(C(=O)OCc3oc(=O)oc3C)CC[C@]3(C)[C@H](CC[C@@H]4[C@@]5(C)CCC(=O)C(C)(C)[C@@H]5CC[C@]43C)[C@@H]12 | 89.8% | 4.72 | 4.68 | 5.64 | 4.96 | 2% | 4.66 | 6.4% | 7.1% | 5.04 | Active | 5.02 | 47 µM | 6.5% | Active | 1.9% | > 50 µM | 6.06 | Active | 1.1% | Activity (CCRF-CEM [16]): 85.3%; Activity (CCRF-CEM [17]): Active
2 | CC1(C)C=C2[C@H]3CC[C@@H]4[C@@]5(C)Cc6cccnc6C(C)(C)[C@@H]5CC[C@@]4(C)[C@]3(C)CC[C@@]2(C(=O)O)CC1 | – | < 4.30 | 4.33 | 5.10 | 4.82 | – | < 4.30 | – | – | 4.85 | – | < 4.30 | > 50 µM | – | – | – | > 50 µM | < 4.30 | – | – | –
3 | C[C@H]1[C@H](C)CC[C@]2(C(=O)O)CC[C@]3(C)C(=CC[C@@H]4[C@@]5(C)CCC(=O)C(C)(C)[C@@H]5CC[C@]43C)[C@H]12 [URSONIC ACID] | – | < 4.30 | 4.33 | 4.80 | 4.57 | – | < 4.30 | – | – | 4.72 | – | 4.30 | > 50 µM | – | – | – | > 50 µM | < 4.30 | – | – | –
4 | C=C(C=O)[C@@H]1CC[C@]2(C(=O)OCc3cn([C@H]4O[C@H](CO)[C@@H](O)[C@H](O)[C@H]4O)nn3)CC[C@]3(C)[C@H](CC[C@@H]4[C@@]5(C)Cc6nccnc6C(C)(C)[C@@H]5CC[C@]43C)[C@@H]12 (stereo in doubt) | 86.9% | – | – | – | – | 4.9% | – | 5% | 41.5% | – | Active | – | – | 57.7% | Active | 3.3% | – | – | Active | 0.1% | Activity (CCRF-CEM [18]): Active; Activity (CCRF-CEM [16]): 0.6%; Activity (CCRF-CEM [17]): Active
5 | Cc1oc(=O)oc1COC(=O)[C@]12CC[C@@H](C(C)C)[C@@H]1[C@H]1CC[C@@H]3[C@@]4(C)Cc5nccnc5C(C)(C)[C@@H]4CC[C@@]3(C)[C@]1(C)CC2 | – | 4.36 | < 4.30 | 4.77 | 4.92 | – | 4.40 | – | – | 4.30 | – | 4.39 | > 50 µM | – | – | – | > 50 µM | 7.59 | – | – | –
6 | C=C(C)[C@@H]1CC[C@]2(C(=O)OCc3cn([C@H]4O[C@H](COC(C)=O)[C@@H](OC(C)=O)[C@H](OC(C)=O)[C@H]4OC(C)=O)nn3)CC[C@]3(C)[C@H](CC[C@@H]4[C@@]5(C)CC[C@H](O)C(C)(C)[C@@H]5CC[C@]43C)[C@@H]12 | – | < 4.30 | < 4.30 | < 4.30 | < 4.30 | – | < 4.30 | – | – | < 4.30 | – | < 4.30 | > 50 µM | – | – | – | > 50 µM | < 4.30 | – | – | remaining at 1 h, 2 µM [19]: 87.8%; remaining at 0.5 h [20]: 92.7%; Papp at 1 h, 10 µM [21]: 0.28 ×10⁻⁶ cm/s; remaining at 0.25 h [22]: 98.5%; recovery at 1 h, 10 µM [23]: 77%; remaining at 1 h [24]: 82.3%; fraction unbound at 10 µM [25]: 0.0044; remaining at 1 h, 2 µM [26]: 97%; efflux ratio [27]: 5.61; remaining at 0.25 h, 2 µM [28]: 99%; remaining at 0.5 h, 2 µM [29]: 98.8%; remaining at 2 h, 2 µM [30]: 83.4%; remaining at 0.25 h, 2 µM [31]: 94.3%; remaining at 2 h [32]: 77.9%; remaining at 0.5 h, 2 µM [33]: 92.2%
7 | CC1(C)CC[C@]23CC[C@]4(C)[C@H](CC[C@@H]5[C@@]6(C)Cc7cccnc7C(C)(C)[C@@H]6CC[C@]54C)[C@H]2[C@H]1OC3 | – | < 4.30 | < 4.30 | < 4.30 | < 4.30 | – | < 4.30 | – | – | < 4.30 | – | < 4.30 | > 50 µM | – | – | – | > 50 µM | < 4.30 | – | – | –
8 | C#CCOC(=O)[C@]12CC[C@@H](C(=C)C)[C@@H]1[C@H]1CC[C@@H]3[C@@]4(C)CC[C@H](O)C(C)(C)[C@@H]4CC[C@@]3(C)[C@]1(C)CC2 | – | 4.51 | 4.48 | 4.62 | 4.44 | – | 4.51 | – | – | 4.40 | – | 4.37 | 26 µM | – | – | – | 32 µM | 4.37 | – | – | –
9 | C=C(C)[C@@H]1CC[C@]2(C(=O)OCc3oc(=O)oc3C)CC[C@]3(C)[C@H](CC[C@@H]4[C@@]5(C)CC[C@H](O)C(C)(C)[C@@H]5CC[C@]43C)[C@@H]12 | 87.4% | 4.82 | 4.77 | 5.35 | 4.92 | 2.1% | 4.72 | 8.7% | 6.1% | 4.85 | Active | 4.89 | 41 µM | 3.4% | Active | 1.9% | 44 µM | 5.08 | Active | 6.8% | Activity (CCRF-CEM [18]): Active; Activity (CCRF-CEM [16]): 83.7%; Activity (CCRF-CEM [17]): Active
10 | CC1(C)CC[C@]23CC[C@]4(C)[C@H](CC[C@@H]5[C@@]6(C)CCC(=O)C(C)(C)[C@@H]6CC[C@]54C)[C@H]2[C@H]1OC3 | – | < 4.30 | < 4.30 | < 4.30 | < 4.30 | – | < 4.30 | – | – | < 4.30 | – | < 4.30 | > 50 µM | – | – | – | > 50 µM | < 4.30 | – | – | –
